Test results published in PMC3710586 (NeuroImage, 2010).
“And” between values parts separate entries of the source, which are not always exact repeats. Identical values can stand only once. “Also recorded” adds a separate entry of the source. Like-named read-outs stand apart in the source and are kept apart here.

Experiments:
[1] = humans, ref Logan et al., 2007, cited from earlier work
[2] = dogs; ref Mattiuz et al., 2003; cited from earlier work
[3] = system: norepinephrine transporters (NET); conditions: rhesus monkeys, cited from earlier work
ATX plasma levels = format: in vivo, rhesus monkey
[4] = system: norepinephrine transporters (NET); conditions: humans, cited from earlier work
[5] = biological target: norepinephrine transporters (NET) (Macaca mulatta, UniProt Q9MYW8)
Sequence of norepinephrine transporters (NET) (Macaca mulatta, UniProt Q9MYW8) (Q9MYW8 1-617): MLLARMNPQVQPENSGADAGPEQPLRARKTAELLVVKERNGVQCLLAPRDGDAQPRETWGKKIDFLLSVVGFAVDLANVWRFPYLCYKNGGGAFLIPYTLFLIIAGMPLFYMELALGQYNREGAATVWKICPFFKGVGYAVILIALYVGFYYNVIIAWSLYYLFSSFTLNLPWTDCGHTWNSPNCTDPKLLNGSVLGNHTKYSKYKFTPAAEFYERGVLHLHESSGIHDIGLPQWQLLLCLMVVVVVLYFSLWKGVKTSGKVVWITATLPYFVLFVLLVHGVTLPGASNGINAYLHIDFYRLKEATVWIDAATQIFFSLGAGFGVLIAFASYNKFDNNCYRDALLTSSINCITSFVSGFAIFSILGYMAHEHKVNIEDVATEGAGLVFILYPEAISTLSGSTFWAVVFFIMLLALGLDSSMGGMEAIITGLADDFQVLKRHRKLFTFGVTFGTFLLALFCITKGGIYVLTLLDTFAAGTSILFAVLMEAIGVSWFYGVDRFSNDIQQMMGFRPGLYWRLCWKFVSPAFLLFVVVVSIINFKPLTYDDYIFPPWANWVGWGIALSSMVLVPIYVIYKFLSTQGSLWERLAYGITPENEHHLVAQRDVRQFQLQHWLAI

[6] = rats; ref Mattiuz et al., 2003; Kielbasa et al., 2009; cited from earlier work
[7] = humans; ref Sauer et al., 2003; cited from earlier work
[8] = biological target: norepinephrine transporters (Homo sapiens, UniProt P23975); conditions: read-out: MRB dissociation constant Kd, in vitro; ref Melloni et al., 1984; cited from earlier work
Sequence of norepinephrine transporters (P23975 whole entry): as the sequence (Q9MYW8 1-617) above, with S15N, A19T, V246I, I410V, I427V, G452S, V606I counted along it

[9] = system: norepinephrine transporters (NET); conditions: for Global VND/fP estimate (four NET-rich regions): Eq. 5, shared across regions, rSE 22%
[10] = [11C]MRB plasma free fraction by ultrafiltration; format: in vitro ADME, rhesus monkey
[11] = [11C]MRB arterial input function and plasma metabolite analysis; format: in vivo, rhesus monkey; conditions: for Fraction of unmetabolized [11C]MRB in plasma: n=10
[12] = rhesus monkey, read-out: Percentage of occupancy of NET by ATX
[13] = ATX low dose, Day 2, MA1, one row per monkey
[14] = ATX medium dose, Day 1, MA1, one row per monkey
[15] = Baseline, Day 1, MA1, one row per monkey
[16] = after 40 mg of methylphenidate, n=9, ref Hannestad et al., 2010

## CNCC[C@@H](Oc1ccccc1C)c1ccccc1 [ATX, atomoxetine]
[1]; 25 mg oral ATX
  Plasma levels of ATX: 116 ng/mL
[1]; 50 mg oral ATX
  Plasma levels of ATX: 206 ng/mL
[1]; 100 mg oral ATX
  Plasma levels of ATX: 421 ng/mL
[2]
  Plasma free fraction of ATX: 3%
[3]; plasma, ref Takano et al., 2009a
  ATX IC50 in occupancy study using [18F]F-MeNER-D2: 0.016 µg/mL
ATX plasma levels; mono-exponential fit of 0-, 60-, 120-min samples
  Percent change per hour of ATX plasma level during the PET scan: −1±6 %/h
ATX plasma levels; r^2=0.902, n=7, intercept set to zero
  Slope of regression of ATX plasma level versus maintenance infusion rate: 1.04 kg·h/L and 1.042 kg·h/L
[4]; after 100 mg of ATX, ref Logan et al., 2007
  Reduction of [11C]MRB average VT in the occipital cortex: 10%
[5]; ATX IC50 using BPF, caudate as reference region, plasma concentration, rSE 16%
  IC50: 74.4 nM
[5]; all monkeys, increasing ATX infusion doses
  Effect of ATX on [11C]MRB binding (VT/fP) in NET-rich regions: decreased in a dosedependent manner; also recorded: inhibited in a dose-dependent manner
[5]; monkey 1, high-dose scan
  ATX occupancy estimate (Lassen plot): 86±13%
[5]; monkey 1, low-dose scan
  ATX occupancy estimate (Lassen plot): 31±10%
[5]; monkey 1, medium-dose scan
  ATX occupancy estimate (Lassen plot): 56±7%
[5]; monkey 2 (only medium-dose scan acquired)
  ATX occupancy estimate (Lassen plot): 65±18%
[5]; monkey 3, high-dose scan
  ATX occupancy estimate (Lassen plot): 82±6%
[5]; monkey 3, low-dose scan
  ATX occupancy estimate (Lassen plot): 39±14%
[5]; monkey 3, medium-dose scan
  ATX occupancy estimate (Lassen plot): 63±7%
[5]; rhesus monkey, read-out: ATX ED50, dose
  ED50: 0.13 mg/kg
[5]; [12]
  receptor occupancy at 0.012 µg/mL: 27%
  receptor occupancy at 0.132 µg/mL: 80%
[6]
  Plasma free fraction of ATX: 11–13%
[7]
  Plasma free fraction of ATX: 1.3%

## COc1ccccc1OC(c1ccccc1)C1CNCCO1 (centres unmarked) [MRB]
[8]
  Kd: 2.5 nM

## [11CH3]Oc1ccccc1O[C@@H](c1ccccc1)[C@@H]1CNCCO1 [[^11C]MRB, (S,S)-[^11C]methylreboxetine]
[9]; [13]
  Distribution Volume VT, Caudate: 6.2 mL/cm^3 and 2.1 mL/cm^3
  Distribution Volume VT, Midbrain: 9.0 mL/cm^3 and 3.0 mL/cm^3
  Distribution Volume VT, Putamen: 2.4 mL/cm^3 and 6.8 mL/cm^3
[9]; [14]
  Distribution Volume VT, Anterior Cingulate: 11.0 mL/cm^3 and 8.7 mL/cm^3 and 8.3 mL/cm^3
  Distribution Volume VT, Brainstem: 11.5 mL/cm^3 and 7.3 mL/cm^3 and 8.2 mL/cm^3
  Distribution Volume VT, Caudate: 8.7 mL/cm^3 and 6.5 mL/cm^3 and 6.3 mL/cm^3
  Distribution Volume VT, Midbrain: 10.1 mL/cm^3 and 7.5 mL/cm^3 and 7.8 mL/cm^3
  Distribution Volume VT, Occipital: 8.2 mL/cm^3 and 6.4 mL/cm^3 and 5.6 mL/cm^3
  Distribution Volume VT, Putamen: 7.2 mL/cm^3 and 9.9 mL/cm^3 and 8.7 mL/cm^3
  Distribution Volume VT, Thalamus: 11.6 mL/cm^3 and 8.2 mL/cm^3 and 8.5 mL/cm^3
[9]; [15]
  Distribution Volume VT, Anterior Cingulate: 13.3 mL/cm^3 and 10.1 mL/cm^3 and 10.9 mL/cm^3
  Distribution Volume VT, Brainstem: 16.3 mL/cm^3 and 10.2 mL/cm^3 and 11.1 mL/cm^3
  Distribution Volume VT, Midbrain: 13.3 mL/cm^3 and 10.5 mL/cm^3 and 9.4 mL/cm^3
  Distribution Volume VT, Occipital: 8.4 mL/cm^3 and 6.6 mL/cm^3 and 6.4 mL/cm^3
  Distribution Volume VT, Putamen: 6.3 mL/cm^3 and 8.9 mL/cm^3 and 6.6 mL/cm^3
  Distribution Volume VT, Thalamus: 15.5 mL/cm^3 and 10.7 mL/cm^3 and 12.7 mL/cm^3
[9]; Baseline, Day 1, MA1 t*=30 min, one row per monkey #1-#3
  Distribution Volume VT, Caudate: 7.7 mL/cm^3 and 6.5 mL/cm^3 and 5.9 mL/cm^3
[9]; Bmax/Kd set to zero
  VND/fP in the putamen: 30 mL/cm^3
[9]
  Global VND/fP estimate (four NET-rich regions): 19±4 mL/cm^3
[9]; listed as [^11C] MRB
  Global VND/fP estimate (four NET-rich regions): 19 mL/cm^3
[9]; Eq. 5, rSE 15%
  VND/fP estimate (four high binding regions plus occipital cortex): 19± 3 mL/cm^3
[9]; baseline VT/fP divided by global VND/fP, minus one, n=3
  Binding potential BPND in the thalamus: 1.8±0.3
[9]; computed from in vitro Kd 2.5 nM, NET density 23–72 nM and fND
  Expected value of BPND in the thalamus: 0.46–1.44
[9]; fND=fP/VND, from VND/fP 19 mL/cm^3
  Tissue free fraction fND: ~5%
[9]; n=2, unit not given
  VT/fP after blockade by the highest dose of ATX, anterior cingulate cortex: 24±3
  VT/fP after blockade by the highest dose of ATX, brainstem: 24±1
  VT/fP after blockade by the highest dose of ATX, midbrain: 23±1
  VT/fP after blockade by the highest dose of ATX, thalamus: 26±3
[9]; n=3
  Normalized distribution volume VT/fP at baseline, caudate nucleus: 28±3 mL/cm^3
  Normalized distribution volume VT/fP at baseline, occipital cortex: 30±2 mL/cm^3
  Normalized distribution volume VT/fP at baseline, putamen: 30±2 mL/cm^3
[9]; or a higher non-specific binding
  Specific binding in the NET-poor regions (caudate, putamen and occipital): ≤ 30%
[10]
  Change of plasma free fraction fP from first to second scan of the day: +17%±10
[10]; monkey #1
  Day-to-day variability of plasma free fraction fP: −16%
[10]; monkey #3
  Day-to-day variability of plasma free fraction fP: −68%
[11]; 20 min post-injection
  Fraction of unmetabolized [11C]MRB in plasma: 42±8%
[11]; 90 min post-injection
  Fraction of unmetabolized [11C]MRB in plasma: 25±4%
[11]; throughout the scans
  Whole blood to plasma radioactivity concentration ratio: 0.94±0.13

## [2H]C([2H])([18F])Oc1ccccc1O[C@@H](c1ccccc1)[C@H]1CNCCO1 [[^18F]MeNER-D2]
[3]; ref Seneca et al., 2006
  BPND in the thalamus: 0.26±0.06
[3]; ref Takano et al., 2009a,b
  BPND in the thalamus: 0.7±0.1

## COC(=O)C(c1ccccc1)C1CCCCN1 (centres unmarked) [methylphenidate]
[4]; [16]
  Reduction of [11C]MRB VT in the occipital cortex: 9±17%
  Reduction of [11C]MRB VT/fP in the occipital cortex: 5±15%
